Test results taken from BindingDB's records for doi:10.1021/jm00111a037 (University of Tokushima, 1991).

assay: Inhibition of arachidonate 5-lipoxygenase purified from porcine leukocytes.

SMILES | IC50 [nM]
CCCCCCCCCCc1c(-c2ccc(O)c(O)c2)oc2c(OC)c(OC)cc(O)c2c1=O | 135
CCCCCCCCCCCCCCc1c(-c2ccc(O)c(O)c2)oc2c(OC)c(OC)cc(OC)c2c1=O | 115
CCCCCCCCCCCCCCCCc1c(-c2ccc(O)c(O)c2)oc2c(OC)c(OC)cc(O)c2c1=O | 1500
CCCCCCOc1c(-c2ccc(O)c(O)c2)oc2cc(OC)c(OC)c(OC)c2c1=O | 126
CCCCCCOc1c(-c2ccc(O)c(O)c2)oc2c(OC)c(OC)cc(OC)c2c1=O | 88
CCCCCCc1c(-c2ccc(O)c(O)c2)oc2c(OC)c(OC)cc(OC)c2c1=O | 58
COc1cc(O)c2c(=O)c(C)c(-c3ccc(O)c(O)c3)oc2c1OC | 300
CCCCc1c(-c2ccc(O)c(O)c2)oc2cc(OC)c(OC)c(=O)c-2c1O | 265
CCCCCCCCCCCCCCCCc1c(-c2ccc(O)c(O)c2)oc2cc(OC)c(OC)c(OC)c2c1=O | 950
CCCCCCOc1c(OC)c(OC)cc2oc(-c3ccc(O)c(O)c3)c(OC)c(=O)c12 | 280
CCCCCCCCCCCCCCCCc1c(-c2ccc(O)c(O)c2)oc2c(OC)c(OC)cc(OC)c2c1=O | 500
CCCCCCCCCCCCCCc1c(-c2ccc(O)c(O)c2)oc2cc(OC)c(OC)c(=O)c-2c1O | 870
CCCCCCCCCCc1c(-c2ccc(O)c(O)c2)oc2c(OC)c(OC)cc(OC)c2c1=O | 86
CCCCCCCCCCCCCCCCc1c(-c2ccc(O)c(O)c2)oc2cc(OC)c(OC)c(=O)c-2c1O | 1250
CCCCc1c(-c2ccc(O)c(O)c2)oc2c(OC)c(OC)cc(OC)c2c1=O | 100
CCCCCCc1c(-c2ccc(O)c(O)c2)oc2cc(OC)c(OC)c(=O)c-2c1O | 110
COc1cc2oc(-c3ccc(O)c(O)c3)c(C)c(=O)c2c(O)c1OC | 480
CCCCCCCCCCCCc1c(-c2ccc(O)c(O)c2)oc2c(OC)c(OC)cc(OC)c2c1=O | 105
CCCCCCOc1cc(OC)c(OC)c2oc(-c3ccc(O)c(O)c3)c(O)c(=O)c12 | 770
CCCCCCCCc1c(-c2ccc(O)c(O)c2)oc2c(OC)c(OC)cc(OC)c2c1=O | 62
CCCCCCOc1c(OC)c(OC)cc2oc(-c3ccc(O)c(O)c3)c(O)c(=O)c12 | 1350

assay: The compound was tested for the inhibition of Arachidonate 5-lipoxygenase purified from porcine leukocytes.

SMILES | IC50 [nM]
CCCCCCCCCCCCc1c(-c2ccc(O)c(O)c2)oc2cc(OC)c(OC)c(OC)c2c1=O | 175
CCCCCCCCCCc1c(-c2ccc(O)c(O)c2)oc2cc(OC)c(OC)c(OC)c2c1=O | 190
CCCCCCCCc1c(-c2ccc(O)c(O)c2)oc2cc(OC)c(OC)c(OC)c2c1=O | 250
CCCCCCCCCCCCCCc1c(-c2ccc(O)c(O)c2)oc2cc(OC)c(OC)c(OC)c2c1=O | 240
CCCCCCCCCCCCc1c(-c2ccc(O)c(O)c2)oc2c(OC)c(OC)cc(O)c2c1=O | 340
CCCCCCCCCCCCc1c(-c2ccc(O)c(O)c2)oc2cc(OC)c(OC)c(=O)c-2c1O | 210
CCCCCCCCCCCCCCc1c(-c2ccc(O)c(O)c2)oc2c(OC)c(OC)cc(O)c2c1=O | 500
